# Measured values from patent US9556202B2, “Sulfonamide derivatives and methods of use thereof for improving the pharmacokinetics of a drug” (MERCK SHARP & DOHME CORP., priority 2012, dated 2017).
# Tests used:
# human CYP11B2 = target: T1, human CYP11B2 (Homo sapiens, UniProt P19099); test: IC50 vs CYP11B2 by aldosterone synthesis in V79 cells (HTRF); format: cell-based; settings: V79 cells expressing human CYP11B2, 750 nM DOC, test conc. 0.5-10000 nM, unit inferred
# T1 construct: expressed in transfected cells
# T1 sequence (P19099 25-503): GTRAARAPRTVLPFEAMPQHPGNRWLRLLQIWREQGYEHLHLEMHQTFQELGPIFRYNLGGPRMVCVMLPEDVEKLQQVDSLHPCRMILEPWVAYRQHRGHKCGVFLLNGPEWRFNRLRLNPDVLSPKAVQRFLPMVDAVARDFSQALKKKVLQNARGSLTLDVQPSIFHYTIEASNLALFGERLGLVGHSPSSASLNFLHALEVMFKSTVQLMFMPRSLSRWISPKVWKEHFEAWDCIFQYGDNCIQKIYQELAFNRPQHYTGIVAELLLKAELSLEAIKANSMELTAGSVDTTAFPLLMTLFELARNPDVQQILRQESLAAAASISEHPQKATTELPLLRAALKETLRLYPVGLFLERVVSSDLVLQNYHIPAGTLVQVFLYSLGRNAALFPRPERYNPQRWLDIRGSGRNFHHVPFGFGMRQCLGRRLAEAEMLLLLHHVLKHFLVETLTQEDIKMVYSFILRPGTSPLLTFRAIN
# Method: Determination of IC50 Vs CYP11B1/CYP11B2 by Measurement of Cortisol/Aldosterone Synthesis
# This assay was performed in a standard 384-well plate design using cultured V79 cells stably expressing human CYP11B1 or human CYP11B2. Test compounds at 10 concentrations (for example, 10000, 3333.3, 1111.1, 370.4, 123.5, 41.2, 13.7, 4.6, 1.5 and 0.5 nM) were added in 384-well plate after the cell-seeding procedure. The incubation substrate contains 1500 nM RSS for CYP11B1 assay/750 nM DOC for CYP11B2 assay. The Cortisol/Aldosterone production of cell culture supernatant was determined by Cortisol/Aldosterone HTRF kit after for about 15 hours incubation at RT (protect from light). IC50 values were calculated from the percent inhibition observed for each test compound at 10 concentrations.
# The assay plate was read using Envision (Perkin Elmer, Waltham, Mass.) at 665 nm and 590 nm (using Filter Barcode of 217#, 205#; Mirror Barcode of 446#).
# Data are analyzed using Assay Data Analyzer. All ratio data (665 nm/590 nm) are back calculated according to the standard curve, resulting in Cortisol/Aldosterone concentrations. IC50 values are reported as the Inflection Point (IP) of a four parameter fit of the titration data.
# The following equation was used to calculate the % inhibition: % Activity=100×{1−(Sample_back calculated Cortisol/Aldosterone concentration−LC_back calculated Cortisol/Aldosterone concentration)/(HC_back calculated Cortisol/Aldosterone concentration−LC_back calculated Cortisol/Aldosterone concentration)} Curve Fitting: Four Parameter Logistic: […]
# CYP2C19 = target: T2, CYP2C19 (Homo sapiens, UniProt P33261); test: Cocktail CYP inhibition assay in human liver microsomes, mephenytoin 4'-hydroxylation; format: in vitro ADME; settings: human liver microsomes 0.1 mg/mL, 30 μM mephenytoin, 10 min 37° C.; unit inferred
# T2 construct: 0.1 mg/mL protein human liver microsomes (BD Gentest); tissue BD Gentest; host or cells: human liver microsomes
# Method: (§1) Determination of IC50 in a Cocktail Assay for CYPs 1A2, 2C9, 2C19, 2D6 and 3A4
# (§2) This assay was performed in a standard 96-well plate design. IC50 values were calculated from the percent inhibition observed for each test compound at 6 concentrations (for example, 0.0032, 0.016, 0.08, 0.4, 2 and 10 μM). The incubation substrate mix contains 10 μM phenacetin (1A2), 5 μM diclofenac (2C9), 30 μM mephenytoin (2C19), 5 μM dextromethorphan (2D6) and 2 μM midazolam (3A4), 0.1 mg/mL protein human liver microsomes (BD Gentest), 1 mM NAPDH, 3.3 mM MgCl2 and 100 mM potassium phosphate buffer (pH 7.4). The production of the metabolite of each probe substrate was determined after incubation for 10 min at 37° C. Quantitation of the metabolite peak area ratio against an internal standard (tolbutamide) was determined by LC/MS/MS analysis following acetonitrile treatment of the incubations.
# (§3) Samples were analyzed in the MRM mode with a SCIEX API-4000 mass spectrometer (Applied Biosystems, Foster City, Calif.), with a Shimadzu LC-20 AD pump (Shimadzu corporation, Kyoto, JP) and a CTC PAL autosampler (Agilent Technologies, Switzerland). A Phenomenex, Luna, 5 μm, 100 A, 2.00×30 mm HPLC column was used for the separation. The mobile phases were: (A) 0.1% formic acid in water and (B) 0.1% formic acid in acetonitrile. The binary gradient was as follows.
# (§4) The peak area ratio of the analyte to the internal standard was used to quantify the metabolite. The values of peak area ratios in the presence of test compound were compared to those of maximum or minimum controls and were expressed as % inhibition by interpolating between the maximum and minimum peak area ratios. Incubations with no inhibitor were defined as the maxima.
# (§5) The following equation was used to calculate the % inhibition: [1−[(X−Low control)/(High control−Low control)]]*100
# (§6) For the IC50 calculation, SigmaPlot was used to plot the mean % inhibition versus the test compound concentrations and for non-linear regression analysis of the data. […]
# CYP2D6 = target: T3, CYP2D6 (Homo sapiens, UniProt P10635); test: Cocktail CYP inhibition assay in human liver microsomes, dextromethorphan O-demethylation; format: in vitro ADME; settings: human liver microsomes 0.1 mg/mL, 5 μM dextromethorphan, 10 min 37° C.; unit inferred
# T3 construct: 0.1 mg/mL protein human liver microsomes (BD Gentest); tissue BD Gentest; host or cells: human liver microsomes
# Method: as §1, §2, §3, §4, §5, §6
# CYP3A4 = target: T4, CYP3A4 (Homo sapiens, UniProt P08684); test: IC50 vs CYP3A by inhibition of lopinavir metabolism in human liver microsomes; format: biochemical; settings: human liver microsomes 0.01 mg/mL, 1.5 μM lopinavir, 8 min 37° C.; test conc. e.g. 0.098-100 nM; unit inferred; read-out: 3A4(LPV)
# T4 construct: 0.01 mg/mL protein human liver microsomes (BD Gentest); tissue BD Gentest; host or cells: human liver microsomes
# Method: Determination of IC50 Vs CYP3A by Measurement of Inhibition of Lopinavir Metabolism
# This assay was performed in a standard 96-well plate design. IC50 values were calculated from the percent inhibition observed for each test compound at 6 concentrations (for example, 0.098, 0.391, 1.56, 6.25, 25 and 100 nM). The incubation substrate mix contains 1.5 μM lopinavir, 0.01 mg/mL protein human liver microsomes (BD Gentest), 1 mM NAPDH, 3.3 mM MgCl2 and 100 mM potassium phosphate buffer (pH 7.4). The production of the sum of three hydroxylated metabolites (M2: 6-hydroxy lopinavir, M3: 4-hydroxy lopinavir, M4: 4-hydroxy lopinavir (epimer of M3), Kumar et al., 1999) was determined after incubation for 8 min at 37° C. Quantitation of the metabolite peak area ratio against an internal standard (tolbutamide) was determined by LC/MS/MS analysis following acetonitrile treatment of the incubations.
# as §3
# as §4, with “maxima and with 5 μM ketoconazole were defined as the minima.” for “maxima.”
# as §5
# For the IC50 calculation, SigmaPlot was used to plot the mean % inhibition versus the test compound concentrations and for non-linear regression analysis of the data. Depending on the range of data points defining the inhibition curve, the data may have been fit to the 4-parameter logistic equation.
# T2 sequence (P33261 whole entry): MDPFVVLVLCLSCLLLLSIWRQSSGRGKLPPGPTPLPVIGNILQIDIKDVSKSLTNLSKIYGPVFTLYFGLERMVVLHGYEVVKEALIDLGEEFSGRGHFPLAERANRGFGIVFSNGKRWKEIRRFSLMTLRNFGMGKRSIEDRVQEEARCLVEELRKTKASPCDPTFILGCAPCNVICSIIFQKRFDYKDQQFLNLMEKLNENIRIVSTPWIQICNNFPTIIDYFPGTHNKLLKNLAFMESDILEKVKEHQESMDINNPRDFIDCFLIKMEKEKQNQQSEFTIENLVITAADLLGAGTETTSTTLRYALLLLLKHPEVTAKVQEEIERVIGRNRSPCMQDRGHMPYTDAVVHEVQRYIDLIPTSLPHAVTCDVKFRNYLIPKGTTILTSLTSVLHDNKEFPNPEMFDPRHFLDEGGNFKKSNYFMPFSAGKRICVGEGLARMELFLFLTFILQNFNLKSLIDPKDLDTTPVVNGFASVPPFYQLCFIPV
# T3 sequence (P10635 whole entry): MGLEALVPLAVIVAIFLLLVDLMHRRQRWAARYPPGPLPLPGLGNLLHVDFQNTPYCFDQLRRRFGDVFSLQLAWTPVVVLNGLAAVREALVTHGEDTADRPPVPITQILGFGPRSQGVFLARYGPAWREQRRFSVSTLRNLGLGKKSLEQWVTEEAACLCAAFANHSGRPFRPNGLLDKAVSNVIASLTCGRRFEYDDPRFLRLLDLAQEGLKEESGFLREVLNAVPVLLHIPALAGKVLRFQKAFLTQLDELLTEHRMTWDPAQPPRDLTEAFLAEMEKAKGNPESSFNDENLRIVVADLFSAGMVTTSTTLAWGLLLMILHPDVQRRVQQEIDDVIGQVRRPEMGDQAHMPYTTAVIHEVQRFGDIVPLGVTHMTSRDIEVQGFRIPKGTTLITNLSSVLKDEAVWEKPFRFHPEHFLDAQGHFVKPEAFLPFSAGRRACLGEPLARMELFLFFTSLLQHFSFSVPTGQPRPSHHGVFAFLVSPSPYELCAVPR
# T4 sequence (P08684 2-503): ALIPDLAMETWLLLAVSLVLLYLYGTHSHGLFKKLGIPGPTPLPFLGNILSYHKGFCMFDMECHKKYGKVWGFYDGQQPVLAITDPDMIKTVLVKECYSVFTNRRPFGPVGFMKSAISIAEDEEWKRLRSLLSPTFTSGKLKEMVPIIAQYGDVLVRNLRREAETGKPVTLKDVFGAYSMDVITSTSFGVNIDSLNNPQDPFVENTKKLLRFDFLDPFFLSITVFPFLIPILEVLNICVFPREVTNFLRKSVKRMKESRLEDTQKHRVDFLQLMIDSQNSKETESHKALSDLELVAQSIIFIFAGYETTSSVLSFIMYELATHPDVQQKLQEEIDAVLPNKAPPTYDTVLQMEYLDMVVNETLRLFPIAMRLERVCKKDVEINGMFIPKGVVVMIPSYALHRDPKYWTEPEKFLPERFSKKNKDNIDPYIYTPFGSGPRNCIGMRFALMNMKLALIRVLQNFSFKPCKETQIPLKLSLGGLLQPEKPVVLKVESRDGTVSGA
IC50 (human CYP11B2),IC50 (CYP2C19),IC50 (CYP2D6),IC50 (CYP3A4),Structure (SMILES)
5 µM,> 10 µM,8.89 µM,3.8 nM,"COCC(c1cncn1[C@H](C)c1ccc(F)cc1)N1CCN(S(=O)(=O)c2cnc(N3CCN(C)CC3)s2)CC1 (single isomer, unassigned) [Compound 35]"
1.31 µM,4.18 µM,7.13 µM,2.5 nM,"C[C@H](c1ccc(F)cc1)n1cncc1C1CCCC2CN(S(=O)(=O)c3cnc(Nc4ccccn4)s3)CCN21 (single isomer, unassigned) [Compound 38]"
3.83 µM,> 10 µM,4.08 µM,4.3 nM,"COCCC(c1cncn1[C@H](C)c1ccc(F)cc1)N1CCN(S(=O)(=O)c2cnc(N3CCN(C)CC3)s2)CC1 (single isomer, unassigned) [Compound 36]"
